Legend:
[1] = biological target: T1, purified resistance-associated esterase (E4) (Myzus persicae, UniProt P35501); test: Esterase interference assay (indirect determination of esterase inhibition); type: biochemical; settings: for Esterase protection (%) after pre-incubation with compound: no esterase = 0%, uninhibited E4 = 100%
T1 construct: 5 g of aphids (stored at −20° C.) were homogenised in 0.02 M phosphate buffer pH 7.0; from tissue; host or cells: whole Myzus persicae aphids, clone 794JZ; homogenate purified over G-25 and DEAE Sepharose Fast Flow
T1 sequence (P35501 24-552): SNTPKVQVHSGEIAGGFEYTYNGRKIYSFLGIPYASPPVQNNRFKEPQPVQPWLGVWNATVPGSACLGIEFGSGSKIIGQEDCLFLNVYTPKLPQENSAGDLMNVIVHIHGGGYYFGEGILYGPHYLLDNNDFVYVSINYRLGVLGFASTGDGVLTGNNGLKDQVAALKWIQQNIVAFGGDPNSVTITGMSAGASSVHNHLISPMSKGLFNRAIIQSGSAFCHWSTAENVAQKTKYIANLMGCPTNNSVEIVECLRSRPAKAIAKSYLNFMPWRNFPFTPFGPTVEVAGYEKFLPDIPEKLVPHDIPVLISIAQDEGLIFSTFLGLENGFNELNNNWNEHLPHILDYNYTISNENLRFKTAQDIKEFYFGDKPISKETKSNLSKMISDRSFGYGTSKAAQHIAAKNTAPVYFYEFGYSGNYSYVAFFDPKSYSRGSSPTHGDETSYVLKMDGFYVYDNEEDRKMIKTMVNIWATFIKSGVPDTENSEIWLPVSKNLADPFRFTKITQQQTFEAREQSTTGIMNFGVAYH
Source text: Measuring the in vitro inhibition is not straight forward, as synergists may bind to a site other than the active site.
The esterase used was the well-characterised resistance associated esterase purified from M. persicae, E4, (aphid clone: 794JZ) as per Devonshire (1977) with some modifications(Devonshire A L, The properties of a carboxylesterase from the peach-potato aphid, Myzus persicae (Sulz.) and its role in conferring insecticide resistance. Biochem J 167: 675-683 (1977)). Briefly, 5 g of aphids (stored at −20° C.) were homogenised in 0.02 M phosphate buffer pH 7.0 and centrifuged at 20 000 g for 10 min. The supernatant was passed through a G-25 column using 0.02M Tris/HCl, pH 8.5 buffer. Unretarded fractions containing esterase activity were further chromatographed through DEAF Sepharose Fast Flow (Amersham Biosciences) and eluted with a linear 0-0.35 M NaCl gradient in 500 ml of Tris/HCl as above. Fractions containing carboxylesterase activity in the form of E4 were concentrated, desalted, and buffer exchanged to 0.02 M phosphate pH 7.0 for storage.
Interactions of the purified resistance-associated esterase (E4) with Compound of Example 2, Compound of Example 3, Compound of Example 4, Compound of Example 9 and Compound of Example 11 were performed using the ‘esterase interference assay’, as described by Khot et al., with some modifications. Devonshire A L, The properties of a carboxylesterase from the peach-potato aphid, Myzus persicae (Sulz.) and its role in conferring insecticide resistance. Biochem J 167: 675-683 (1977)). Briefly, stock solutions of novel synergists (3 mM in acetone) were pre-incubated with pure E4, to give a final concentration of 0.03 mM, for 16 h at 4° C. Aliquots (15 μl ) of E4, E4+Compound of Example 2, E4+Compound of Example 3, E4+Compound of Example 4, E4+Compound of Example 9 and E4+Compound of Example 11 were incubated for 1 h with 60 μl of serial dilutions of azamethiphos in 0.02M phosphate buffer, pH 7, in separate wells of a NUNC microplate. Aliquots (25 p1) of house fly head homogenate (source of AChE) were added to each well and incubated for 15 minutes at room temperature. E4 in acetone and buffer only served as the positive and the negative controls respectively. AChE activity was measured at 405 nm using a Tmax kinetic microplate reader (Molecular Devices, Menlo Park, Calif.). Readings were taken automatically for 10 min at 10 s intervals. The rate (mOD min^−1) was calculated by the integrated software, Softmax Pro 4.6. All treatments were performed in triplicate.
No added esterase is giving 0% esterase protection and uninhibited esterase (E4) is giving 100% protection.
The materials and procedure as stated in Example 13, paragraphs 13.1, 13.1.2, 13.1.2.1 and 13.1.2.2. have been used and the following results have been obtained: […]

[2] = test system: P450 enzymes (oxidases) of pollen beetle homogenate; test: Oxidase assay: 7-ethoxycoumarin O-deethylation inhibition in pollen beetle homogenate; type: biochemical, Meligethes aeneus; settings: 3 μl of 10 mM compound, enzyme plus acetone = 100
Procedure: The ability of the novel compositions comprising the synergists of Formula (I) to inhibit P450 enzymes, a major mechanism conferring resistance to xenobiotics, was measured using pollen beetle homogenate.
Approximately 50 non-sexed adult pollen beetle from each population were homogenised on ice in 1 ml 0.1 M sodium phosphate buffer, pH 7.6, containing, 1 mM EDTA, 1 mM DTT, 1 mM PTU, 1 mM PMSF and centrifuged at 10 000×g for 10 min. The resulting supernatant was used as the enzyme source.
The O-deethylation inhibition by compounds of Example 2 or 3 was measured using 7-ethoxycoumarin (7-EC) according to Ullrich and Weber (Ullrich V and Weber P, The O-dealkylation of 7-ethoxycoumarin by liver microsomes. Z Physiol Chem 353: 1171-1177 (1972)) and adapted to the microplate format as described by DeSousa (De Sousa G, Cuany A, Brun A, Amichot M, Rahmani R, Berge J B, A microfluorometric method for measuring ethoxycoumarin-O-deethylase activity on individual Drosophila melanogaster abdomens: interest for screening resistance in insect populations Analyt. Biochem 229: 86-91 (1995)). Briefly, 7-EC was dissolved in ethanol to make a 20 mM stock solution and diluted by the addition of 0.1 M, pH 7.8 sodium phosphate buffer to give a concentration of 0.5 mM. Fifty microliters of pollen beetle enzyme were added to separate wells of a microplate, followed by the addition of 3 μl 10 mM of either compounds of Example 2 or 3 or acetone only. After 10 min incubation in room temperature, 80 μl 0.5 mM 7-EC was added following by another 5 min at 30° C. The reaction initiated by the addition of 10 μl 9.6 mM NADPH in 0.1 M sodium phosphate, pH 7.8. Enzyme activity was measured in a Victor^2 1420 multilabel counter (Wallac, Milton Keynes, UK) for 60 min with readings taken every 5 min, using an excitation wavelength of 370 nm and an emission wavelength of 460 nm. All assays were performed in triplicate.
The ability of the composition comprising the compounds of Examples 2 and 3 to inhibit oxidases derived from the 3 different pollen beetle populations is presented in Table 7.

Compound: CC#CCOc1cc2c(cc1CCC)OCO2 [Example 3, 5-(but-2-ynyloxy)-6-propyl-benzo[1.3]dioxole]
- Reduction of esterase protection, comparison in words ([1]; E4 esterase interference assay, Examples 13 and 16): better activity than compounds 4, 7, respectively
- Esterase protection (%) after pre-incubation with compound ([1]; Table 2 (Example 13), 0.03 mM compound pre-incubated with E4 16 h at 4° C.): 0.97%
- Esterase protection (%) after pre-incubation with compound ([1]; second 'TABLE 3' (Example 16), procedure as Example 13): 0.98%
- Inhibition of 7-ethoxycoumarin O-deethylation (%) ([2]; Lebork homogenate): −2.24%
- Inhibition of 7-ethoxycoumarin O-deethylation (%) ([2]; Rogalin homogenate): 27.6%
- Inhibition of 7-ethoxycoumarin O-deethylation (%) ([2]; UK population homogenate): 10.4%

— patent US8809389B2, “Substituted alkynyl phenoxy compounds as new synergists in pesticidal compositions” (Endura S.p.A., priority 2009, dated 2014)
